Here are results for eight compounds from ChEMBL document CHEMBL1141887, “Design and synthesis of (E)-1,1,2-triarylethenes: novel inhibitors of the cyclooxygenase-2 (COX-2) isozyme” (Bioorg Med Chem Lett, 2005).

SMILES strings stand for the structures.

The assay deals with T1, Prostaglandin G/H synthase 1 (Ovis aries, UniProt P05979).
T1 sequence (P05979 whole entry): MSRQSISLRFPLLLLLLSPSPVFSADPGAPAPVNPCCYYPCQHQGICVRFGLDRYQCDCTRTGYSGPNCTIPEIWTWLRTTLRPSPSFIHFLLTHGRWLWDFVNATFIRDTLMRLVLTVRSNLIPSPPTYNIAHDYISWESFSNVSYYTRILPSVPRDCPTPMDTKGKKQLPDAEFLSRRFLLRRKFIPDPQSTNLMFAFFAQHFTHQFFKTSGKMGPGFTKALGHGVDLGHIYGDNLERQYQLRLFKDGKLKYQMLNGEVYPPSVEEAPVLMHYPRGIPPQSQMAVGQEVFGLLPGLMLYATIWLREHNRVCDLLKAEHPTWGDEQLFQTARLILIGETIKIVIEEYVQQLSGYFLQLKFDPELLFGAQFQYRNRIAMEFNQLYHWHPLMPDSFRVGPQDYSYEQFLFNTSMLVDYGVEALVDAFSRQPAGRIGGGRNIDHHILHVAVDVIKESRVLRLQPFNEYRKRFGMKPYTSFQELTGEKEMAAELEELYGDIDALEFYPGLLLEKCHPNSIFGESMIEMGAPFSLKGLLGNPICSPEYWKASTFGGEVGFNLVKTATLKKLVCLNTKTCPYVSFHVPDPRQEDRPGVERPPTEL
The assay is described as follows: In vitro inhibitory concentration against ovine Cyclooxygenase-1.
In general, IC50 refers to the concentration that inhibits the measured activity by half. A high value points to lower potency. Compound `CS(=O)(=O)c1ccc(/C(=C/c2ccccc2)c2ccccc2)cc1` gave an IC50 of 0.14 µM.
Regarding `Cc1ccc(/C=C(\c2ccccc2)c2ccc(S(C)(=O)=O)cc2)cc1`, the IC50 was more than 100 µM.
As for `Cc1ccc(C(=Cc2ccc(S(C)(=O)=O)cc2)c2ccc(C)cc2)cc1`, the figure is more than 100 µM; as for `CS(=O)(=O)c1ccc(C=C(c2ccc(F)cc2)c2ccc(F)cc2)cc1`, more than 100 µM.
Turning to `CS(=O)(=O)c1ccc(/C(=C/c2ccc(Cl)cc2)c2ccccc2)cc1`, the IC50 was more than 100 µM.
As to `CS(=O)(=O)c1ccc(/C(=C/c2ccc(F)cc2)c2ccccc2)cc1`, the IC50 was more than 100 µM.
For the compound `CS(=O)(=O)c1ccc(C=C(c2ccc(Cl)cc2)c2ccc(Cl)cc2)cc1`, the IC50 was more than 100 µM.
Regarding `CS(=O)(=O)c1ccc(/C(=C/c2ccc(F)c(F)c2)c2ccccc2)cc1`, the IC50 is more than 100 µM.
